Experimental findings from US20230382889A1 (Volastra Therapeutics, Inc., priority 2022, published 2023) are described below.

Where two headings read alike, the source gives them in different places.

One assay relates to NIH:OVCAR-3 cells. The assay can be described thus: Cell viability of KIF18a-sensitive cell lines, NIH:OVCAR-3 (Cell Titre-Glo, 7 days). It counts as cell-based. The conditions noted are these: NIH:OVCAR3, 7 days, read-out: NIH:OVCAR3 IC50. As to the method:
(§1) Cell lines were seeded as follows 24 hours before compound treatment: HCC15 (Korean Cell Line Bank) 600 cell/well, 95 μL of RPMI-1640 media supplemented with 100 units/mL penicillin, 100 units/mL streptomycin and 10% FBS; NIH:OVCAR-3 (ATCC), 1000 cell/well, 95 μL of RPMI-1640 media supplemented with 100 units/mL penicillin, 100 units/mL streptomycin, 0.01 mg/mL bovine insulin, and 20% FBS; JIMT-1 (Addexbio) 1000 cell/well, 95 μL of DMEM media supplemented with 100 units/mL penicillin, 100 units/mL streptomycin, and 10% FBS.
(§2) Test compounds were added to cells in a 20× dilution scheme by adding 5 μL of serially diluted compound to the plate, and the treated cells were incubated for an additional 7 days in a 37° C., 5% CO2 incubator. DMSO was used as the negative control (0% effect), and wells omitting cells were used as the positive control (100% effect). The cells were incubated for seven days, and cell viability determined via the Promega Cell Titre-Glo® Assay kit. Luminescence units were converted to ATP concentrations via an ATP standard curve (10 point, 2-fold dilution from 5 uM). % Inhibition was calculated for each well as: ([max−min]−[test−min])/[max−min]. IC50 values were calculated from concentration vs. % Inhibition data via a four-parameter variable slope model.

The next assay concerns the target hKIF18A (1-374) (Homo sapiens (Human), UniProt Q8NI77). In words: Inhibition of KIF18A microtubule-dependent ATPase activity (ADP-Glo). The conditions noted are these: 4 nM hKIF18A (1-374). It counts as biochemical. The gist of the method: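 Reaction was started with pre-formed microtubules and ATP (0.2 mg/mL and 2.0 mM in the added mix) and run 60 min at 28 °C. ADP was read by ADP-Glo luminescence, and IC50 came from a four-parameter fit of % inhibition.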
For orientation: ADP-Glo first removes unused ATP, then detects ADP through luciferase.

For another assay, the system named is HCC15 cells. In words: Cell viability of KIF18a-sensitive cell lines, HCC15 (Cell Titre-Glo, 7 days). It counts as cell-based. The conditions noted are these: HCC15, 7 days, read-out: HCC15 IC50. How it is done: as §1, §2
For the next assay, the system named is JIMT-1 cells. In words: Cell viability of KIF18a-sensitive cell lines, JIMT-1 (Cell Titre-Glo, 7 days). It counts as cell-based. The settings on record: JIMT-1, 7 days, read-out: JIMT-1 IC50. As to the method:
as §1, §2

For orientation: IC50 means the concentration needed to halve the response being measured.

Chain of hKIF18A (1-374) (Q8NI77 1-374): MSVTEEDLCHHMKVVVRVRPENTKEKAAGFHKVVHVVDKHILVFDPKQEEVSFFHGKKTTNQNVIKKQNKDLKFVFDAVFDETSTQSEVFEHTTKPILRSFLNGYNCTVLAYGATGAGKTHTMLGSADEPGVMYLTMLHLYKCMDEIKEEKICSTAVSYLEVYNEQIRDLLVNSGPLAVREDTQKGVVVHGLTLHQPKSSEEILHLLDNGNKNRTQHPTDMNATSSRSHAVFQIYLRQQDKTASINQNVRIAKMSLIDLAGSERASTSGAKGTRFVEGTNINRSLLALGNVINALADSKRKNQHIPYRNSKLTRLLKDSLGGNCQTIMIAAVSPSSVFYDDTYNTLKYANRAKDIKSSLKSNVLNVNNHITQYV

As for `O=S(=O)(CCO)Nc1ccc(-n2cc(-c3cccc(C(O)C4CCCC4)n3)nn2)c(N2CCC3(CC2)CC3)c1` (single isomer, unassigned) [Compound 90b], the 50% inhibitory concentration (IC50) in the assay with NIH:OVCAR-3 cells turned out to be 21 nM; at hKIF18A (1-374), 5.6 nM; with HCC15 cells, 13 nM; in the assay on JIMT-1 cells it was 20 nM.
For the compound `CS(=O)(=O)Nc1ccc(-n2cc(-c3cccc(S(=O)(=O)N4CC(F)(F)C4)c3)nn2)c(N2CCC3(CC2)CC3)c1` [Compound 13, N-(4-(4-(3-((3,3-difluoroazetidin-1-yl)sulfonyl)phenyl)-1H-1,2,3-triazol-1-yl)-3-(6-azaspiro[2.5]octan-6-yl)phenyl)methanesulfonamide], the IC50 in the assay on NIH:OVCAR-3 cells (Homo sapiens, OVCAR-3, 168 h) amounted to 4.5 nM; at hKIF18A (1-374) it was 7.2 nM; in the assay on HCC15 cells (168 h), 3 nM; in the assay with JIMT-1 cells (Homo sapiens, 168 h), 4.7 nM.
Taken in the same sequence, the figures for `CS(=O)(=O)Nc1ccc(-c2cn(-c3cccc(N4CCC(F)(F)CC4)n3)nn2)c(N2CCC3(CC2)CC3)c1` [Compound 29, N-(4-(1-(6-(4,4-difluoropiperidin-1-yl)pyridin-2-yl)-1H-1,2,3-triazol-4-yl)-3-(6-azaspiro[2.5]octan-6-yl)phenyl)methanesulfonamide] were 21 nM, 18 nM, 25 nM and 23 nM.
Taken in the same sequence, the figures for `CCS(=O)(=O)Nc1ccc(-n2cc(-c3cccc(N4CC(F)(F)C4)n3)nn2)c(N2CCC3(CC2)CC3)c1` [Compound 61, N-(4-(4-(6-(3,3-difluoroazetidin-1-yl)pyridin-2-yl)-1H-1,2,3-triazol-1-yl)-3-(6-azaspiro[2.5]octan-6-yl)phenyl)ethanesulfonamide] were 16 nM, 8 nM, 15 nM and 15 nM.
Taken in the same sequence, the figures for `O=S(=O)(Nc1ccc(-n2cc(-c3cccc(N4CCC(F)(F)CC4)n3)nn2)c(N2CCC3(CC2)CC3)c1)C1(CO)CC1` [Compound 62, N-(4-(4-(6-(4,4-difluoropiperidin-1-yl)pyridin-2-yl)-1H-1,2,3-triazol-1-yl)-3-(6-azaspiro[2.5]octan-6-yl)phenyl)-1-(hydroxymethyl)cyclopropane-1-sulfonamide] were 13 nM, 18 nM, 13 nM and 9.5 nM.
With `CS(=O)(=O)Nc1ccc(-c2cn(-c3cccc(N4CCC(F)(F)CC4)c3)nn2)c(N2CCC3(CC2)CC3)c1` [Compound 64, N-(4-(1-(3-(4,4-difluoropiperidin-1-yl)phenyl)-1H-1,2,3-triazol-4-yl)-3-(6-azaspiro[2.5]octan-6-yl)phenyl)methanesulfonamide], the IC50 with NIH:OVCAR-3 cells (Homo sapiens, OVCAR-3, 168 h) turned out to be 120 nM; against hKIF18A (1-374), 25 nM; in the assay with HCC15 cells (168 h) it was 120 nM; with JIMT-1 cells (Homo sapiens, 168 h), 120 nM.
`O=S(=O)(CCO)Nc1ccc(-c2cn(-c3cccc(N4CCC(F)(F)CC4)n3)nn2)c(N2CCC3(CC2)CC3)c1` [Compound 71, N-(4-(1-(6-(4,4-difluoropiperidin-1-yl)pyridin-2-yl)-1H-1,2,3-triazol-4-yl)-3-(6-azaspiro[2.5]octan-6-yl)phenyl)-2-hydroxyethane-1-sulfonamide]: the IC50 in the assay on NIH:OVCAR-3 cells (Homo sapiens, OVCAR-3, 168 h) came out at 13 nM; against hKIF18A (1-374), 10 nM; in the assay with HCC15 cells (168 h), 12 nM; in the assay on JIMT-1 cells (Homo sapiens, 168 h) it was 20 nM.
Taken in the same sequence, the figures for `Cc1cc(-c2cn(-c3ccc(NS(=O)(=O)CCO)cc3N3CCC4(CC3)CC4)nn2)nc(N2CC3C(C2)C3(F)F)n1` (centres unmarked) [Compound 73, N-(4-(4-(2-(6,6-difluoro-3-azabicyclo[3.1.0]hexan-3-yl)-6-methylpyrimidin-4-yl)-1H-1,2,3-triazol-1-yl)-3-(6-azaspiro[2.5]octan-6-yl)phenyl)-2-hydroxyethane-1-sulfonamide] were 14 nM, 11 nM, 10 nM and 42 nM.
Taken in the same sequence, the figures for `O=S(=O)(CCO)Nc1ccc(-n2cc(-c3ccc(F)c(N4CCC(F)(F)CC4)n3)nn2)c(N2CCC3(CC2)CC3)c1` [Compound 79, N-(4-(4-(6-(4,4-difluoropiperidin-1-yl)-5-fluoropyridin-2-yl)-1H-1,2,3-triazol-1-yl)-3-(6-azaspiro[2.5]octan-6-yl)phenyl)-2-hydroxyethane-1-sulfonamide] were 8.3 nM, 15 nM, 5.4 nM and 7.8 nM.
Taken in the same sequence, the figures for `Cc1cc(-n2cc(-c3ccc(NS(=O)(=O)CCO)cc3N3CCC4(CC3)CC4)nn2)nc(N2CCC(F)(F)CC2)n1` [Compound 87, N-(4-(1-(2-(4,4-difluoropiperidin-1-yl)-6-methylpyrimidin-4-yl)-1H-1,2,3-triazol-4-yl)-3-(6-azaspiro[2.5]octan-6-yl)phenyl)-2-hydroxyethane-1-sulfonamide] were 49 nM, 27 nM, 43 nM and 90 nM.
With `Cc1cc(-c2cn(-c3ccc(NS(=O)(=O)CCO)cc3N3CCC(C)CC3)nn2)nc(N2CCC(F)(F)CC2)n1` [Compound 89, N-(4-(4-(2-(4,4-difluoropiperidin-1-yl)-6-methylpyrimidin-4-yl)-1H-1,2,3-triazol-1-yl)-3-(4-methylpiperidin-1-yl)phenyl)-2-hydroxyethane-1-sulfonamide], the IC50 in the assay with NIH:OVCAR-3 cells (Homo sapiens, OVCAR-3, 168 h) was 51 nM; against hKIF18A (1-374) it was 21 nM; in the assay with HCC15 cells (168 h) it was 34 nM; in the assay on JIMT-1 cells (Homo sapiens, 168 h), 48 nM.
Taken in the same sequence, the figures for `Cc1cc(-c2cn(-c3ccc(NS(=O)(=O)C4(CO)CC4)cc3N3CCCCC3)nn2)nc(N2CCC(F)(F)CC2)n1` [Compound 91, N-(4-(4-(2-(4,4-difluoropiperidin-1-yl)-6-methylpyrimidin-4-yl)-1H-1,2,3-triazol-1-yl)-3-(piperidin-1-yl)phenyl)-1-(hydroxymethyl)cyclopropane-1-sulfonamide] were 40 nM, 36 nM, 29 nM and 35 nM.
Taken in the same sequence, the figures for `Cc1cc(N2CCC(F)(F)CC2)nc(-n2cc(-c3ccc(NS(=O)(=O)CCO)cc3N3CCC4(CC3)CC4)nn2)c1` [Compound 95, N-(4-(1-(6-(4,4-difluoropiperidin-1-yl)-4-methylpyridin-2-yl)-1H-1,2,3-triazol-4-yl)-3-(6-azaspiro[2.5]octan-6-yl)phenyl)-2-hydroxyethane-1-sulfonamide] were 51 nM, 38 nM, 37 nM and 68 nM.
For the compound `O=S(=O)(CCO)Nc1ccc(-c2cn(-c3cncc(N4CCC(F)(F)CC4)n3)nn2)c(N2CCC3(CC2)CC3)c1` [Compound 96, N-(4-(1-(6-(4,4-difluoropiperidin-1-yl)pyrazin-2-yl)-1H-1,2,3-triazol-4-yl)-3-(6-azaspiro[2.5]octan-6-yl)phenyl)-2-hydroxyethane-1-sulfonamide], the IC50 in the assay on NIH:OVCAR-3 cells (Homo sapiens, OVCAR-3, 168 h) is 28 nM; against hKIF18A (1-374) it was 4.4 nM; with HCC15 cells (168 h) it was 17 nM; with JIMT-1 cells (Homo sapiens, 168 h) it was 44 nM.
